Test results as given in PMC8452302 (CPT: Pharmacometrics & Systems Pharmacology, 2021).
pIC50: −log10 of the molar value. Like-named read-outs stand apart in the source and are kept apart here.

Tests used:
BCRP = molecular target: T1, BCRP (Homo sapiens, UniProt Q9UNQ0); assay: In vitro BCRP inhibition, HEK293-BCRP membrane vesicles, rosuvastatin probe; format: biochemical
T1 sequence (Q9UNQ0 1-655): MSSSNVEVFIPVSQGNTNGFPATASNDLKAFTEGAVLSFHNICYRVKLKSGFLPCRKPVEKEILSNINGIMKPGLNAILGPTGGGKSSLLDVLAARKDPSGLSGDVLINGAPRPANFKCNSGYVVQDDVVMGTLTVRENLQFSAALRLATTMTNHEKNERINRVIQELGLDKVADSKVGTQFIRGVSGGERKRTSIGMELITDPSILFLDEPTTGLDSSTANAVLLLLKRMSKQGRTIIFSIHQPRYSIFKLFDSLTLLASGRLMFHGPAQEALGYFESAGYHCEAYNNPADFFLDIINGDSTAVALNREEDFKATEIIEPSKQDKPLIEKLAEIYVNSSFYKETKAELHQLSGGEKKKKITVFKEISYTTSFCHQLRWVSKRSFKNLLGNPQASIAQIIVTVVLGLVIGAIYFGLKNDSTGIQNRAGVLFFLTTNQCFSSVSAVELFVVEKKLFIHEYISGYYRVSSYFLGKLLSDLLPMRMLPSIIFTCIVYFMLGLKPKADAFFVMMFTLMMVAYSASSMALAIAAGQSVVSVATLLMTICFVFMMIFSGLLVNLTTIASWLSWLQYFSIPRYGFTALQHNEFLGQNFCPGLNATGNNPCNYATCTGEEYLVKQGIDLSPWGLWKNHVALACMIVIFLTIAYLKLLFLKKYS

OATP1B1 [1] = molecular target: T2, OATP1B1 (Homo sapiens, UniProt Q9Y6L6); assay: In vitro OATP1B1 inhibition, transfected HEK293 cells, rosuvastatin probe; format: cell-based
T2 sequence (Q9Y6L6 1-691): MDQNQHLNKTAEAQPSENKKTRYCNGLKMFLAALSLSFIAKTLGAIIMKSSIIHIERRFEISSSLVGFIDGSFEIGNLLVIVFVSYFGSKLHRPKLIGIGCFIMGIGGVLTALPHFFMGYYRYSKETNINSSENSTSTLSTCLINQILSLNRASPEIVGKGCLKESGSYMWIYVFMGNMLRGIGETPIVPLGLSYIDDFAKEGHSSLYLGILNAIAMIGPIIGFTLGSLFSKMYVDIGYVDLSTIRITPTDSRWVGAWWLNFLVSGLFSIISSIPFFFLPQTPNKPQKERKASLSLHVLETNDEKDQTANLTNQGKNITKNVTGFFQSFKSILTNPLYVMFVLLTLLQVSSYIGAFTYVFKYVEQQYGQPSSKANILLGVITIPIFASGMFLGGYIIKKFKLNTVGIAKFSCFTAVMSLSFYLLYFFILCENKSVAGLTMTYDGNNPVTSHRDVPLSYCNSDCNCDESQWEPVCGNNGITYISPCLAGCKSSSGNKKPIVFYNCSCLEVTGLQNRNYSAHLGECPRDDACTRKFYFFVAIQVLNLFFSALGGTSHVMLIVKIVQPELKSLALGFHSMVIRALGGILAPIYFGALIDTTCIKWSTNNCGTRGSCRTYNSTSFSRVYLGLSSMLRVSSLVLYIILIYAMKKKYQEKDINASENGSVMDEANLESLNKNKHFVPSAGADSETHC

OATP1B3 [2] = molecular target: T3, OATP1B3 (Homo sapiens, UniProt Q9NPD5); assay: In vitro OATP1B3 inhibition, transfected HEK293 cells, rosuvastatin probe; format: cell-based
T3 sequence (Q9NPD5 1-702): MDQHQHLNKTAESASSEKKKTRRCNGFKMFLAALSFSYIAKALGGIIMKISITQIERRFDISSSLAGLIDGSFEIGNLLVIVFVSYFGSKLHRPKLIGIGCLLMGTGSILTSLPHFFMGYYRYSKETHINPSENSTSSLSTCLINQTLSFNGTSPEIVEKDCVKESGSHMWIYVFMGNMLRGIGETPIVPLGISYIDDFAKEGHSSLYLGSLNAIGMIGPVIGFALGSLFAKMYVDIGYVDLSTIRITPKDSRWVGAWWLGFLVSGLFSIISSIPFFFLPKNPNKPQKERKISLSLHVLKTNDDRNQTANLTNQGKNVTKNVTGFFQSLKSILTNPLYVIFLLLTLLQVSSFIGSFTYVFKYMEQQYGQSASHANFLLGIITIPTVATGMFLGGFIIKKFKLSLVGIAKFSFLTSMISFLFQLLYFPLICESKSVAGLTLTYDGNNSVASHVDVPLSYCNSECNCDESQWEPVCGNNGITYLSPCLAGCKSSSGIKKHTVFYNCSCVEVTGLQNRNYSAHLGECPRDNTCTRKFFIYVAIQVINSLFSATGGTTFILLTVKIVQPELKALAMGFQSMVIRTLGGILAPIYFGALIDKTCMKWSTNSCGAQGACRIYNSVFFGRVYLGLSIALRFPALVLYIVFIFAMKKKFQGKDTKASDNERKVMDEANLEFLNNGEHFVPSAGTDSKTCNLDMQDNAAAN

OATP1B1 [3] = molecular target: T2, OATP1B1; assay: Static DDI risk assessment, OATP1B1 R-value; details: 1 + Iin,max,u/IC50; metabolite/combination additive; Imax,u for IV
OATP1B3 [4] = molecular target: T3, OATP1B3; assay: Static DDI risk assessment, OATP1B3 R-value; details: 1 + Iin,max,u/IC50; metabolite/combination additive; Imax,u for IV
[5] = cited from earlier work; for Rosuvastatin AUC ratio: observed, rosuvastatin with vs without inhibitor; for Rosuvastatin AUC ratio / Cmax ratio Observed: ref Table S1; for Cmax ratio Observed: rosuvastatin with/without inhibitor, regimens as in table row
[6] = read-out: BCRP IC50, membrane vesicles, rosuvastatin 0.2 µM probe

Row | SMILES | pIC50 (BCRP) | pIC50 (OATP1B1 [1]) | pIC50 (OATP1B3 [2]) | 1B1 R-Value (OATP1B1 [3]) | 1B3 R-Value (OATP1B3 [4]) | Rosuvastatin AUC ratio [5] | Cmax ratio Observed [5] | Rosuvastatin AUC ratio ([5]; listed as darolutamide) | pIC50 (BCRP; [6]) | IC50 at 1 min (OATP1B3 [2]; human, HEK293 cells transfected with OATP1B3, pH 7.4, probe rosuvastatin 0.3 µM) [µM] | reduction of renal clearance of rosuvastatin ([5]; probenecid 1000 mg) [%]
1 | CCC(C)n1ncn(-c2ccc(N3CCN(c4ccc(OCC5COC(Cn6cncn6)(c6ccc(Cl)cc6Cl)O5)cc4)CC3)cc2)c1=O (centres unmarked) [Itraconazole] | 5.49 | 4.89 | < 4.70 | 1.01 | 1.00 | 1.26 | 1.38 |  |  |  | 
2 | O=c1ccc2ccc(OCCCCN3CCN(c4cccc5sccc45)CC3)cc2[nH]1 [Brexpiprazole] | 4.00 | 4.88 |  | 1.00 |  | 1.12 |  |  |  |  | 
3 | Cc1ccc(C)c(OCCCC(C)(C)C(=O)O)c1 [Gemfibrozil] | 3.53 |  | 5.00 | 2.60 | 1.15 | 1.88 | 2.21 |  |  |  | 
4 | CC(O)c1cc(C(=O)N[C@@H](C)Cn2ccc(-c3ccc(C#N)c(Cl)c3)n2)[nH]n1 (some centres unmarked) [Darolutamide] | 7.05 |  | 4.69 | 1.09 | 1.02 | 5.50 | 5.50 | > 5 |  |  | 
5 | CC[C@H](Nc1ncnc2[nH]cnc12)c1nc2cccc(F)c2c(=O)n1-c1ccccc1 [Idelalisib] | 4.26 | 5.50 | 5.15 | 1.19 |  |  |  |  |  |  | 
6 | CC(=O)c1cc(C(=O)N[C@@H](C)Cn2ccc(-c3ccc(C#N)c(Cl)c3)n2)[nH]n1 [Keto‐darolutamide] |  |  |  |  |  |  |  |  | 6.25 |  | 
7 | COc1cc(Nc2ncc(F)c(Nc3ccc4c(n3)N(COP(=O)(O)O)C(=O)C(C)(C)O4)n2)cc(OC)c1OC [Fostamatinib] | 5.70 | 6.05 | 5.13 |  |  | 1.95 | 1.90 |  |  |  | 
8 | CC(O)C(C)n1ncn(-c2ccc(N3CCN(c4ccc(OCC5COC(Cn6cncn6)(c6ccc(Cl)cc6Cl)O5)cc4)CC3)cc2)c1=O (centres unmarked) [Hydroxy‐itraconazole] |  | 5.85 |  |  |  |  |  |  |  |  | 
9 | COC(=O)N[C@H](C(=O)N1CCC[C@H]1c1nc(-c2ccc(-c3ccc(-c4c[nH]c([C@@H]5CCCN5C(=O)[C@@H](NC(=O)OC)C(C)C)n4)cc3)cc2)c[nH]1)C(C)C [Daclatasvir] | 5.96 |  |  | 1.18 | 1.08 | 1.47 |  |  |  |  | 
10 | C[C@](O)(COc1ccc(C#N)cc1)C(=O)Nc1ccc(C#N)c(C(F)(F)F)c1 [Enobosarm] | 5.96 |  |  | 1.00 |  | 1.18 |  |  |  |  | 
11 | COc1ccnc(C[S+]([O-])c2nc3ccc(OC(F)F)cc3[nH]2)c1OC (centres unmarked) [Pantoprazole] | 5.21 | < 3.30 |  | 1.01 |  |  |  |  |  | > 500 | 
12 | CC(C)(C)c1ccc(S(=O)(=O)Nc2ccc(Cl)cc2C(=O)c2cc[n+]([O-])cc2)cc1 [Vercirnon] | 5.48 | 5.68 |  | 2.02 |  | 0.99 |  |  |  |  | 
13 | CC[C@H]1OC(=O)[C@H](C)[C@@H](O[C@H]2C[C@@](C)(OC)[C@@H](O)[C@H](C)O2)[C@H](C)[C@@H](O[C@@H]2O[C@H](C)C[C@H](N(C)C)[C@H]2O)[C@](C)(OC)C[C@@H](C)C(=O)[C@H](C)[C@@H](O)[C@]1(C)O [Clarithromcyin] |  |  |  | 1.99 | 1.35 | 1.58 |  |  | 3.39 |  | 
14 | O=C(O)C[C@H]1CC[C@H](c2ccc(-c3ccc(Nc4ccc(C(F)(F)F)nc4)cn3)cc2)CC1 [Pradigastat] | 6.15 | 5.83 |  | 1.03 | 1.01 | 0.96 |  |  |  |  | 
15 | COc1cc(Nc2ncc(F)c(Nc3ccc4c(n3)NC(=O)C(C)(C)O4)n2)cc(OC)c1OC [R406] |  |  |  |  |  |  |  |  | 7.19 |  | 
16 | CC(C)c1noc(N2CCC(COc3ccc(-c4ccc(S(C)(=O)=O)cc4)nc3)CC2)n1 [GSK1292263] | 5.52 | < 4.52 |  | 1.03 |  | 1.39 |  |  |  |  | 
17 | COC[C@H]1C[C@@H](c2ncc(-c3ccc4c(c3)COc3cc5c(ccc6nc([C@@H]7CC[C@H](C)N7C(=O)[C@@H](NC(=O)OC)C(C)C)[nH]c65)cc3-4)[nH]2)N(C(=O)[C@H](NC(=O)OC)c2ccccc2)C1 [Velpatasvir] | 7.05 |  |  | 1.00 | 1.02 | 2.59 | 2.50 |  |  |  | 
18 | CCCN(CCC)S(=O)(=O)c1ccc(C(=O)O)cc1 [Probenecid] | 3.67 |  | 3.47 | 1.99 | 1.11 |  |  |  |  |  | ~80
19 | CCCc1nc2c(C)cc(-c3nc4ccccc4n3C)cc2n1Cc1ccc(-c2ccccc2C(=O)O)cc1 [Telmisartan] | 6.21 | 5.51 |  | 1.01 | 1.03 | 1.20 |  |  |  |  | 
20 | CO[C@H]1/C=C/O[C@@]2(C)Oc3c(C)c(O)c4c(O)c(c(/C=N/N5CCN(C)CC5)c(O)c4c3C2=O)NC(=O)/C(C)=C\C=C\[C@H](C)[C@H](O)[C@@H](C)[C@@H](O)[C@@H](C)[C@H](OC(C)=O)[C@@H]1C [Rifampicin] |  | 6.54 | 6.14 | 10.20 | 4.65 |  |  |  |  |  | 
